What was measured:
[1] = biological target: T1, Drosophila OR47a (Drosophila melanogaster, UniProt P81921); assay: Calcium ion fluorescence (GCaMP6) assay, OR47a stable HEK293 cell line; type: cell-based; conditions: for OR47a response (VUAA1-normalized) at 1 μM / OR47a response (VUAA1-normalized) at 10 μM / OR47a response (VUAA1-normalized) at 100 μM / Average response: OR47a cell line; for Average response: mean of biological replicates
T1 construct: expressed in transfected cells
T1 sequence (P81921 1-385): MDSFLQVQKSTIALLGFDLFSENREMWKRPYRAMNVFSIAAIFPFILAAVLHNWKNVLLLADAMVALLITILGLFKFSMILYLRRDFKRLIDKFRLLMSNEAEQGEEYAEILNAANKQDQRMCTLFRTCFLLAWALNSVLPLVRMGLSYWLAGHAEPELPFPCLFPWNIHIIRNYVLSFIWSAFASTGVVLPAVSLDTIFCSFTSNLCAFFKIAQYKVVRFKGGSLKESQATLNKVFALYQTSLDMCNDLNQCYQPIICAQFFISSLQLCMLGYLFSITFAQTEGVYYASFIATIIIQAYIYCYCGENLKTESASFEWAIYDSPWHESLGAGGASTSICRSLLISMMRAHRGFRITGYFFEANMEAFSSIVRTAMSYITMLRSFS
T1 sequence (Q9VNB5 1-486 partner): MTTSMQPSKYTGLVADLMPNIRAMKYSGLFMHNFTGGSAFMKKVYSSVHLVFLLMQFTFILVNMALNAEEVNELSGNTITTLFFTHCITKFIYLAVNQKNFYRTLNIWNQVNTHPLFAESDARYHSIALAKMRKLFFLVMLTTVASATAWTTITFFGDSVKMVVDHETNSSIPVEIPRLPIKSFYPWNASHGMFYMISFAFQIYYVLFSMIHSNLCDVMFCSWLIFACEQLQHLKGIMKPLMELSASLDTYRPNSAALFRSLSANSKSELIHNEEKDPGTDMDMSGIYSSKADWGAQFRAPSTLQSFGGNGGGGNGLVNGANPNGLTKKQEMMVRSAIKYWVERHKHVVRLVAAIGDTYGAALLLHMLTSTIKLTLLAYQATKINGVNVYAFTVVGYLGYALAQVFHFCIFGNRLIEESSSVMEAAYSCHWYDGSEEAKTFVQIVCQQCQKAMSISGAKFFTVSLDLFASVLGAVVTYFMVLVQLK
Procedure, shortened: (§1)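 HEK293 lines stably expressing each Drosophila OR with GCaMP6, doxycycline-induced (1 μg/mL) 48 or 72 h. Fluorescence recorded 5 s baseline then 30 s after VOC injection at pH 7.3; ΔF=(FMAX−F0)/F0, normalized to 50 µM VUAA1 response per line, triplicate wells averaged; concentration series 0.01–100 μM.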

[2] = biological target: T2, Drosophila OR71a (Drosophila melanogaster, UniProt Q9VUK5); assay: Calcium ion fluorescence (GCaMP6) assay, OR71a stable HEK293 cell line; type: cell-based; conditions: for OR71a response (VUAA1-normalized) at 1 μM / OR71a response (VUAA1-normalized) at 10 μM / OR71a response (VUAA1-normalized) at 100 μM / Average response: OR71a cell line; for Average response: VUAA1-normalized response, mean of biological replicates
T2 construct: expressed in transfected cells
T2 sequence (Q9VUK5 1-378): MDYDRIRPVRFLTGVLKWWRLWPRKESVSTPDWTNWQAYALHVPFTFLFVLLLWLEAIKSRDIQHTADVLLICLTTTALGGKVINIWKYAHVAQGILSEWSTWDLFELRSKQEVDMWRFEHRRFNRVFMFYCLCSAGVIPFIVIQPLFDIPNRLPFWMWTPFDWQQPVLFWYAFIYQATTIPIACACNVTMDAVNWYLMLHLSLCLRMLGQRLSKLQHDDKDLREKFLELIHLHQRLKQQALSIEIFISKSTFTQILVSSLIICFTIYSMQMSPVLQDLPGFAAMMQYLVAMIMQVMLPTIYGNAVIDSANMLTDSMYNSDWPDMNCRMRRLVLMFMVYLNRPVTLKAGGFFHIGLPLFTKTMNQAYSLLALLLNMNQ
T2 sequence (Q9VNB5 1-486 partner): T1 sequence (Q9VNB5 1-486 partner)
Procedure, shortened: as §1

[3] = ligand concentration 1 (unit not given), threshold 0.05, below shown as 0
[4] = ligand concentration 10 (unit not given), threshold 0.05, below shown as 0
[5] = ligand concentration 100 (unit not given), threshold 0.05, below shown as 0
[6] = ligand concentration 1 (unit not given), 0.05 threshold, values below shown as 0
[7] = ligand concentration 10 (unit not given), 0.05 threshold, values below shown as 0
[8] = ligand concentration 100 (unit not given), 0.05 threshold, values below shown as 0
[9] = HEK293, read-out: OR47a Average response (VUAA1-normalized)
[10] = concentration 1, normalized fluorescence change, values below 0.05 threshold given as 0
[11] = concentration 10, normalized fluorescence change, values below 0.05 threshold given as 0
[12] = concentration 100, normalized fluorescence change, values below 0.05 threshold given as 0

| Compound | OR47a response (VUAA1-normalized) at 1 μM ([1]; VOC concentration 1 μM) | OR47a response (VUAA1-normalized) at 10 μM ([1]; VOC concentration 10 μM) | OR47a response (VUAA1-normalized) at 100 μM ([1]; VOC concentration 100 μM) | Average response ([1]; odorant cc. 1 µM) | Average response ([1]; odorant cc. 10 µM) | Average response ([1]; odorant cc. 100 µM) | OR71a response (VUAA1-normalized) at 1 μM ([2]; VOC concentration 1 μM) | OR71a response (VUAA1-normalized) at 10 μM ([2]; VOC concentration 10 μM) | OR71a response (VUAA1-normalized) at 100 μM ([2]; VOC concentration 100 μM) | Average response ([2]; cc. 1 µM) | Average response ([2]; cc. 10 µM) | Average response ([2]; cc. 100 µM) | DF norm AVERAGE OR47a [1, 6] | DF norm AVERAGE OR47a [1, 7] | DF norm AVERAGE OR47a [1, 8] | DF norm AVERAGE OR71a [2, 6] | DF norm AVERAGE OR71a [2, 7] | DF norm AVERAGE OR71a [2, 8] | further results |
| --- | --- | --- | --- | --- | --- | --- | --- | --- | --- | --- | --- | --- | --- | --- | --- | --- | --- | --- | --- |
| C=C1CCC2(C(C)C)CC12 (stereo not drawn) [sabinene] | 0.00 | 0.00 | 0.00 | 0.00 | 0.00 | 0.00 | 0.00 | 0.00 | 0.00 | 0.00 | 0.00 | 0.0235 | – | – | – | – | – | – | DF norm AVERAGE OR47a [1, 3]: 0; DF norm AVERAGE OR47a [1, 4]: 0; DF norm AVERAGE OR47a [1, 5]: 0; DF norm AVERAGE OR71a [2, 3]: 0; DF norm AVERAGE OR71a [2, 4]: 0; DF norm AVERAGE OR71a [2, 5]: 0 |
| C=Cc1ccccc1 [styrene] | 0.00 | 0.00 | 0.00 | 0.0246 | 0.00 | 0.0286 | 0.00 | 0.00 | 0.00 | 0.027 | 0.0458 | 0.00724 | 0 | 0 | 0 | 0 | 0 | 0 | – |
| CCCCCCCCCCCCCC [tetradecane] | 0.00 | 0.00 | 0.00 | 0.02 | 0.03 | 0.00 | 0.00 | 0.00 | 0.00 | 0.0218 | 0.0215 | 0.0462 | 0 | 0 | 0 | 0 | 0 | 0 | – |
| Cc1ccccc1 [toluene] | 0.00 | 0.00 | 0.00 | 0.00 | 0.0267 | 0.00 | 0.00 | 0.00 | 0.00 | 0.00 | 0.00 | 0.00 | 0 | 0 | 0 | 0 | 0 | 0 | – |
| CCCCCCCCCCC [undecane] | 0.00 | 0.00 | 0.00 | 0.00 | 0.00 | 0.00 | 0.00 | 0.00 | 0.00 | 0.00 | 0.00 | 0.00847 | 0 | 0 | 0 | 0 | 0 | 0 | – |
| CC/C=C\CCOC(C)=O [z3-hexenyl acetate] | – | – | – | 0.35 | 0.67 | 0.76 | – | – | – | 0.00 | 0.00 | 0.00 | 0.3542 | 0.669 | 0.7586 | 0 | 0 | 0 | activation at 1 µM [1, 9]: 35%; activation at 10 µM [1, 9]: 67%; activation at 100 µM [1, 9]: 76% |
| CC1=CCC23CC1C(C)(C)C2CCC3C (stereo not drawn) [α-funebrene] | 0.00 | 0.00 | 0.00 | 0.00 | 0.00 | 0.00 | 0.00 | 0.00 | 0.00 | 0.00 | 0.00 | 0.00 | 0 | 0 | 0 | 0 | 0 | 0 | – |
| (+)-beta-cedrene | – | – | – | 0.00 | 0.00 | 0.00 | – | – | – | 0.0243 | 0.03 | 0.00 | – | – | – | – | – | – | OR47a response (VUAA1-normalized response) ([1]; VOC concentration 1 μM): 0.00; OR47a response (VUAA1-normalized response) ([1]; VOC concentration 10 μM): 0.00; OR47a response (VUAA1-normalized response) ([1]; VOC concentration 100 μM): 0.00; DF norm AVERAGE OR47a [1, 10]: 0; DF norm AVERAGE OR47a [1, 11]: 0; DF norm AVERAGE OR47a [1, 12]: 0; OR71a response (VUAA1-normalized response) ([2]; VOC concentration 1 μM): 0.00; OR71a response (VUAA1-normalized response) ([2]; VOC concentration 10 μM): 0.00; OR71a response (VUAA1-normalized response) ([2]; VOC concentration 100 μM): 0.00; DF norm AVERAGE OR71a [2, 10]: 0; DF norm AVERAGE OR71a [2, 11]: 0; DF norm AVERAGE OR71a [2, 12]: 0 |
| (-)-alpha-cedrene | – | – | – | 0.00 | 0.00 | 0.02 | – | – | – | 0.00 | 0.043 | 0.00 | – | – | – | – | – | – | OR47a response (VUAA1-normalized response) ([1]; VOC concentration 1 μM): 0.00; OR47a response (VUAA1-normalized response) ([1]; VOC concentration 10 μM): 0.00; OR47a response (VUAA1-normalized response) ([1]; VOC concentration 100 μM): 0.00; DF norm AVERAGE OR47a [1, 10]: 0; DF norm AVERAGE OR47a [1, 11]: 0; DF norm AVERAGE OR47a [1, 12]: 0; OR71a response (VUAA1-normalized response) ([2]; VOC concentration 1 μM): 0.00; OR71a response (VUAA1-normalized response) ([2]; VOC concentration 10 μM): 0.00; OR71a response (VUAA1-normalized response) ([2]; VOC concentration 100 μM): 0.00; DF norm AVERAGE OR71a [2, 10]: 0; DF norm AVERAGE OR71a [2, 11]: 0; DF norm AVERAGE OR71a [2, 12]: 0 |

— publication PMC10709440, “High-throughput ligand profile characterization in novel cell lines expressing seven heterologous insect olfactory receptors for the detection of volatile plant biomarkers” (Scientific Reports, 2023)
